Experimental data: US20250230193A1, “CYCLIC COMPOUND HAVING SELECTIVE KRAS INHIBITORY EFFECT ON HRAS AND NRAS” (CHUGAI SEIYAKU KABUSHIKI KAISHA, priority 2022, published 2025)
Read-outs that look alike come from different tables or passages of the source. *1 amine or outer side, *2 acyl side, *3 side chain or, on linkers, in order; H or OH if unused. Where a SMILES comes first, the peptide text is derived from it. Bridges are numbered along the chain shown (N, C = ends). [ ]: non-standard residue; d: D form. hPhe(3,5-F2-4-CF3) = N[C@@H](CCc1cc(F)c(C(F)(F)F)c(F)c1)C(=O)O; hPhe(3-Cl-4-CF3) = N[C@@H](CCc1ccc(C(F)(F)F)c(Cl)c1)C(=O)O; X8 = CCCN([C@@H](Cc1ccc(OCC=[*:3])cc1)C(=O)[*:2])[*:1]; X4 = CCCN([C@@H](COCCC(C)C)C(=O)[*:2])[*:1]; X7 = CN([C@@H](CCC=[*:3])C(=O)[*:2])[*:1]; NMeGly(cPent) = CN[C@H](C(=O)O)C1CCCC1; Hyp = O=C(O)[C@@H]1C[C@@H](O)CN1; NMeD = CN[C@@H](CC(=O)O)C(=O)O; NMeL = CN[C@@H](CC(C)C)C(=O)O; NMeA = CN[C@@H](C)C(=O)O; Ac5c = NC1(C(=O)O)CCCC1; Aze = O=C(O)[C@@H]1CCN1; Ac4c = NC1(C(=O)O)CCC1; Sar = CNCC(=O)O

What was measured:
[1] = target: GDP-bound KRAS wild-type protein (Homo sapiens, UniProt P01116); test: Binding to KRAS by surface plasmon resonance (SPR), Single Cycle Kinetics
[2] = target: GDP-bound NRAS wild-type protein (Homo sapiens, UniProt P01111); test: Binding to NRAS by surface plasmon resonance (SPR), Single Cycle Kinetics
GDP-bound NRAS wild-type protein, sequence (P01111 whole entry): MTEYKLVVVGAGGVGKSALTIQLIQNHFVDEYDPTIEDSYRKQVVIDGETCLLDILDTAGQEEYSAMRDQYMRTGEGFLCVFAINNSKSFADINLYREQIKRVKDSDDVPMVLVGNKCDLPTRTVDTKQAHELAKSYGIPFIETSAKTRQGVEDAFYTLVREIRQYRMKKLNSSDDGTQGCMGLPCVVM

[3] = tested on: human lung cancer strain NCI-H441
[4] = target: GDP-bound HRAS wild-type protein (Homo sapiens, UniProt P01112); test: Binding to HRAS by surface plasmon resonance (SPR), Single Cycle Kinetics
GDP-bound HRAS wild-type protein, sequence (P01112 whole entry): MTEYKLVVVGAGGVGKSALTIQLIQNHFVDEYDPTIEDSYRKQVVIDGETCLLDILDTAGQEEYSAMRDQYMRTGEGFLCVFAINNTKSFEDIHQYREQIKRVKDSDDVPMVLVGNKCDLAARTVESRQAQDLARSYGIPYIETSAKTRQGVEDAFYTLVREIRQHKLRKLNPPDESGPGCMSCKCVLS

[5] = SPR Single Cycle Kinetics, GDP-bound KRAS wild-type protein, 1:1 binding model
[6] = GDP-bound KRAS wild-type protein, SPR Single Cycle Kinetics, 1:1 binding model
[7] = KD ratio, GDP-bound NRAS wild-type vs GDP-bound KRAS wild-type, SPR
[8] = SPR, Single Cycle Kinetics, GDP-bound KRAS wild-type protein
[9] = KD ratio, GDP-bound HRAS wild-type vs GDP-bound KRAS wild-type, SPR
[10] = SPR, GDP-bound wild-type proteins

## CC[C@H](C)[C@@H]1NC(=O)[C@H](CC(C)C)N(C)C(=O)CSC[C@@H](C(=O)N(C)C)N(C)C(=O)[C@H](C2CCCC2)N(C)C(=O)C2(CCCC2)NC(=O)[C@@H]2CCCN2C(=O)[C@H](CCc2cc(F)c(C(F)(F)F)c(F)c2)NC(=O)CN(C)C(=O)[C@H](Cc2ccc(C(F)(F)F)cc2)N2CC/C=C\C[C@@H](C2=O)N(C)C(=O)CN(C)C1=O (stereo in doubt) [PP3109]
[1]; [5]
  Kd: 3000 nM

## CC[C@H](C)[C@@H]1NC(=O)[C@H](CC(C)C)N(C)C(=O)C[C@@H](C(=O)N(C)C)N(C)C(=O)[C@H](C2CCCC2)N(C)C(=O)C2(CCCC2)NC(=O)C2CCCN2C(=O)[C@H](CCc2ccc(C(F)(F)F)c(Cl)c2)NC(=O)CN(C)C(=O)[C@H](Cc2ccc(C(F)(F)F)cc2)N2CC/C=C(/C)C[C@@H](C2=O)N(C)C(=O)CN(C)C1=O (stereo partly shown) [PP0617]
[2]; SPR
  NRAS/KRAS (ratio of KD value with respect to GDP-bound NRAS wild-type protein to KD value with respect to KRAS): B (a compound having 3 or more and less than 10 is denoted as B)
[1]; [6]
  Kd: 6.9 nM
[3]
  IC50: 159 nM
[4]; SPR
  HRAS/KRAS (ratio of KD value with respect to GDP-bound HRAS wild-type protein to KD value with respect to KRAS): B (a compound having 3 or more and less than 10 is denoted as B)

## CCCN1C(=O)CN(C)C(=O)CN(C)C(=O)[C@H]([C@@H](C)CC)NC(=O)[C@@H]2CCCCOc3ccc(cc3)C[C@H]1C(=O)N(C)CC(=O)N[C@@H](CCc1cc(F)c(C(F)(F)F)c(F)c1)C(=O)N1C[C@H](OCC)C[C@H]1C(=O)NC1(CCCC1)C(=O)N(C)[C@@H](C1CCCC1)C(=O)N(C)[C@H](C(=O)N(C)C)CC(=O)N2C [PP0894]
[2]; [7]
  NRAS/KRAS (ratio of KD value with respect to NRAS to KD value with respect to KRAS): C (A compound having a KD ratio of 0.1 or more and less than 3 is denoted as C)
[1]; [8]
  Kd: 0.0088 nM
[4]; [9]
  HRAS/KRAS (ratio of KD value with respect to HRAS to KD value with respect to KRAS): C (A compound having a KD ratio of 0.1 or more and less than 3 is denoted as C)

## CCCN1C(=O)CN(C)C(=O)CN(C)C(=O)[C@H]([C@@H](C)CC)NC(=O)[C@@H]2CCC=CCOc3ccc(cc3)C[C@H]1C(=O)N(C)CC(=O)N[C@@H](CCc1cc(F)c(C(F)(F)F)c(F)c1)C(=O)N1C[C@H](OCC)C[C@H]1C(=O)NC1(CCCC1)C(=O)N(C)[C@@H](C1CCCC1)C(=O)N(C)[C@H](C(=O)N(C)C)CC(=O)N2C [PP0900] ([X7]I[Sar][Sar][X8][Sar][hPhe(3,5-F2-4-CF3)][Hyp](Et)[Ac5c][NMeGly(cPent)][NMeD]-NMe2; staple 1-5; lactam N-11)
[2]; [7]
  NRAS/KRAS (ratio of KD value with respect to NRAS to KD value with respect to KRAS): C (A compound having a KD ratio of 0.1 or more and less than 3 is denoted as C)
[1]; [8]
  Kd: 0.012 nM
[4]; [9]
  HRAS/KRAS (ratio of KD value with respect to HRAS to KD value with respect to KRAS): C (A compound having a KD ratio of 0.1 or more and less than 3 is denoted as C)

## CCCN1C(=O)CN(C)C(=O)CN(C)C(=O)[C@H]([C@@H](C)CC)NC(=O)[C@@H]2CCCCCCC[C@@H](NC(=O)[C@@H]3C[C@@H](OCC)CN3C(=O)[C@H](CCc3cc(F)c(C(F)(F)F)c(F)c3)NC(=O)CN(C)C(=O)[C@@H]1Cc1ccc(C(F)(F)F)cc1)C(=O)N(C)[C@@H](C1CCCC1)C(=O)N(C)[C@H](C(=O)N(C)C)CC(=O)N2C [PP0925]
[2]; [7]
  NRAS/KRAS (ratio of KD value with respect to NRAS to KD value with respect to KRAS): A (a compound having 10 or more and less than 20 is denoted as A)
[1]; [8]
  Kd: 1.1 nM
[4]; [9]
  HRAS/KRAS (ratio of KD value with respect to HRAS to KD value with respect to KRAS): B (a compound having 3 or more and less than 10 is denoted as B)

## CCO[C@@H]1C[C@H]2C(=O)NC3(CCC3)C(=O)N(C)[C@@H](C3CCCC3)C(=O)N(C)[C@H](C(=O)N3CCOCC3)CC(=O)N(C)[C@@H](Cc3ccccc3)C(=O)N[C@@H]([C@@H](C)CC)C(=O)N(C)CC(=O)N(C)[C@H]3CCCCCN(C3=O)[C@@H](Cc3ccc(F)cc3)C(=O)N(C)CC(=O)N[C@@H](CCc3cc(F)c(C(F)(F)F)c(F)c3)C(=O)N2C1 [PP1181]
[2]; [7]
  NRAS/KRAS (ratio of KD value with respect to NRAS to KD value with respect to KRAS): B (a compound having 3 or more and less than 10 is denoted as B)
[1]; [8]
  Kd: 0.19 nM
[4]; [9]
  HRAS/KRAS (ratio of KD value with respect to HRAS to KD value with respect to KRAS): B (a compound having 3 or more and less than 10 is denoted as B)

## CCO[C@@H]1C[C@H]2C(=O)NC3(CCC3)C(=O)N(C)[C@@H](C3CCCC3)C(=O)N(C)[C@H](C(=O)N(C)C)CC(=O)N(C)[C@@H](CC3CCCC3)C(=O)N[C@@H]([C@@H](C)CC)C(=O)N(C)CC(=O)N(C)[C@H]3C/C=C\CCN(C3=O)[C@@H](Cc3ccc(C(F)(F)F)cc3)C(=O)N(C)CC(=O)N[C@@H](CCc3ccc(C(F)(F)F)c(OC)c3)C(=O)N2C1 [PP1248]
[1]
  Kd: 0.069 nM
[3]; read-out: NCI-H441 IC50, NCI-H441 cells, 4 days, CellTiter-Glo
  IC50: 7.3 nM

## CCCN1C(=O)[C@@H]2CCN2C(=O)[C@H](C)N(C)C(=O)[C@H]([C@@H](C)CC)NC(=O)[C@H](CC(C)C)N(C)C(=O)C[C@@H](C(=O)N(C)C)N(C)C(=O)[C@H](C2CCCC2)N(C)C(=O)C2(CCC2)NC(=O)[C@@H]2CCCN2C(=O)[C@H](CCc2ccc(C(F)(F)F)c(Cl)c2)NC(=O)CN(C)C(=O)[C@@H]1COCCC(C)C [PP1820, (3S,9S,12S,17S,20S,23S,27S,30S,36S)-3-[2-[3-chloro-4-(trifluoromethyl)phenyl]ethyl]30-cyclopentyl-23-isobutyl-9-(isopentyloxymethyl)-N,N,7,17,18,24,28,31-octamethyl-20-[(1S)-1-methylpropyl]-2,5,8,11,16,19,22,25,29,32,35-undecaoxo-10-propyl-spiro[1,4,7,10,15,18,21,24,28,31,34-undecazatricyclo[34.3.0.012,15]nonatriacontane-33,1′-cyclobutane]-27-carboxamide] ([NMeL]I[NMeA][Aze][X4][Sar][hPhe(3-Cl-4-CF3)]P[Ac4c][NMeGly(cPent)][NMeD]-NMe2; lactam N-11)
[2]; [7]
  NRAS/KRAS (ratio of KD value for NRAS to KD value for KRAS): C (A compound having a KD ratio of 0.1 or more and less than 3 is denoted as C)
[1]; [5]
  Kd: 0.6 nM
[4]; [9]
  HRAS/KRAS (ratio of KD value for HRAS to KD value for KRAS): C (A compound having a KD ratio of 0.1 or more and less than 3 is denoted as C)

## CCC[C@H]1C(=O)N[C@@H]([C@@H](C)CC)C(=O)N(C)CC(=O)N(C)[C@H]2C/C=C\CCN(C2=O)[C@@H](Cc2ccc(C(F)(F)F)cc2)C(=O)N(C)CC(=O)N[C@@H](CCc2cc(F)c(C(F)(F)F)c(F)c2)C(=O)N2C[C@H](OCC)C[C@H]2C(=O)NC2(CC(C)(C)C2)C(=O)N(C)[C@@H](CC(C)(C)C)C(=O)N(C)C(C(=O)N(C)C)CC(=O)N1C (stereo partly shown) [PP2730]
[2]; class symbols
  NRAS/KRAS (ratio of KD value with respect to GDP-bound NRAS wild-type protein to KD value with respect to KRAS): A (a compound having 10 or more and less than 20 is denoted as A)
[1]; [6]
  Kd: 0.065 nM
[4]; class symbols
  HRAS/KRAS (ratio of KD value with respect to GDP-bound HRAS wild-type protein to KD value with respect to KRAS): A (a compound having 10 or more and less than 20 is denoted as A)

## CCC[C@H]1C(=O)N[C@@H]([C@@H](C)CC)C(=O)N(C2CC2)CC(=O)N(C)[C@H]2C/C=C\CCN(C2=O)[C@@H](Cc2ccc(C)cc2)C(=O)N(C)CC(=O)N[C@@H](CCc2ccc(C(F)(F)F)c(OC)c2)C(=O)N2C[C@H](OCC)C[C@H]2C(=O)N(C)C2(CCC2)C(=O)N(C)[C@@H](C2CCCC2)C(=O)N(C)[C@H](C(=O)N2CCCCC2)CC(=O)N1C [PP3096, (2S,8S,12R,14S,20S,23S,27S,30S,36S,38Z)-20-cyclopentyl-32-cyclopropyl-12-ethoxy-8-[2-[3-methoxy-4-(trifluoromethyl)phenyl]ethyl]-4,16,19,22,26,35-hexamethyl-30-[(1S)-1-methylpropyl]-23-(piperidine-1-carbonyl)-27-propyl-2-(p-tolylmethyl)spiro[1,4,7,10,16,19,22,26,29,32,35-undecazatricyclo[34.5.1.0^10,14]dotetracont-38-ene-17,1′-cyclobutane]-3,6,9,15,18,21,25,28,31,34,42-undecone]
[2]; [10]
  NRAS/KRAS (ratio of KD value with respect to GDP-bound NRAS wild-type protein to KD value with respect to KRAS): A (a compound having 10 or more and less than 20 is denoted as A)
[3]
  IC50: 35.8 nM
[4]; [10]
  HRAS/KRAS (ratio of KD value with respect to GDP-bound HRAS wild-type protein to KD value with respect to KRAS): A (a compound having 10 or more and less than 20 is denoted as A)

## CCC[C@H]1C(=O)N[C@@H]([C@@H](C)CC)C(=O)N(C2CC2)CC(=O)N(C)[C@H]2C/C=C\CCN(C2=O)[C@@H](Cc2ccc(C)cc2)C(=O)N(C)CC(=O)N[C@@H](CCc2cc(F)c(C(F)(F)F)c(F)c2)C(=O)N2C[C@H](OCC)C[C@H]2C(=O)N(C)C2(CCC2)C(=O)N(C)[C@@H](C2CCCC2)C(=O)N(C)[C@H](C(=O)N2CCCCC2)CC(=O)N1C [PP3111, (2S,8S,12R,14S,20S,23S,27S,30S,36S,38Z)-20-cyclopentyl-32-cyclopropyl-8-[2-[3,5-difluoro-4-(trifluoromethyl)phenyl]ethyl]-12-ethoxy-4,16,19,22,26,35-hexamethyl-30-[(1S)-1-methylpropyl]-23-(piperidine-1-carbonyl)-27-propyl-2-(p-tolylmethyl)spiro[1,4,7,10,16,19,22,26,29,32,35-undecazatricyclo[34.5.1.0^10,14]dotetracont-38-ene-17,1′-cyclobutane]-3,6,9,15,18,21,25,28,31,34,42-undecone]
[2]; [10]
  NRAS/KRAS (ratio of KD value with respect to GDP-bound NRAS wild-type protein to KD value with respect to KRAS): A (a compound having 10 or more and less than 20 is denoted as A)
[1]; [5]
  Kd: 4.8 nM
[4]; [10]
  HRAS/KRAS (ratio of KD value with respect to GDP-bound HRAS wild-type protein to KD value with respect to KRAS): A (a compound having 10 or more and less than 20 is denoted as A)
